From patent publication US8673938B2, “Chemical compounds” (priority 2006, dated 2014)

These compounds were tested against human 11βHSD1 enzyme (Homo sapiens (Human), UniProt P28845) (assay: biochemical). Settings: not given.
human 11βHSD1 enzyme, sequence (P28845 whole entry): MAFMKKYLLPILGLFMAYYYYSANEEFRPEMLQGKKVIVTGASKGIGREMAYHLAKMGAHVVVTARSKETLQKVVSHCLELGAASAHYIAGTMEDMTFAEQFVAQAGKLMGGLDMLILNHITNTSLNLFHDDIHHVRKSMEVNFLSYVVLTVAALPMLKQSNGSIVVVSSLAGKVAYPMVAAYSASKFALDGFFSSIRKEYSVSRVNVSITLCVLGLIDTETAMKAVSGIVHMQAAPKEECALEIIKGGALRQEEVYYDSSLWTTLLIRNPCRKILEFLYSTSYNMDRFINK
In the case of O=C(O)C[C@@H]1CCCN(c2ccc(C(=O)NC34CC5CC(CC(C5)C3)C4)cn2)C1 [{(3S)-1-[5-(adamantan-1-ylcarbamoyl)pyridin-2-yl]piperidin-3-yl}acetic acid, reference compound], the IC50 is reported as over 30 µM.
In the case of O=C(O)C[C@@H]1CCCN(c2ccc(C(=O)NC3CCCCC3)c(N3CCNCC3)n2)C1 [{(3S)-1-[5-(cyclohexylcarbamoyl)-6-(piperazin-1-yl)pyridin-2-yl]piperidin-3-yl}acetic acid], the IC50 is reported as over 30 µM.

Same assay, conditions: read-out: % inhibition of human 11-βHSD
With CCCSc1nc(N2CC[C@H](CC(=O)O)C2)ccc1C(=O)N[C@H]1C2CC3CC1C[C@](OC(F)F)(C3)C2 [Example 184, 2-[(3R)-1-[5-[[(2r,5s)-5-(difluoromethoxy)-2-adamantyl]carbamoyl]-6-propylsulfanyl-pyridin-2-yl]pyrrolidin-3-yl]acetic acid] the inhibition at 30 µM was 94%.
O=C(O)C[C@@H]1CCCN(c2ccc(C(=O)NC3CCCCC3)c(OCCc3cccnc3)n2)C1 [compound 138, 2-[(3S)-1-[5-(cyclohexyl-carbamoyl)-6-(2-pyridin-3-ylethoxy)pyridin-2-yl]-3-piperidyl] acetic acid] was tested, and the inhibition at 30 µM was 98%.
In the case of CC(C)(O)C1CCCN(C(=O)c2ccc(N3CCC[C@@H](CC(=O)O)C3)nc2SC2CCCC2)C1 (stereo partly drawn) [Example 128, 2-[(3S)-1-[6-cyclopentylsulfanyl-5-[3-(2-hydroxypropan-2-yl)piperidine-1-carbonyl]pyridin-2-yl]-3-piperidyl]acetic acid], the inhibition at 30 µM is reported as 91%.
For CCCSc1nc(N2CCC[C@@H](CC(=O)O)C2)ccc1C(=O)NC1CCOCC1 [Example 173], the inhibition at 30 µM was 92%.
In the case of CCCSc1nc(Sc2ccc(OCC(=O)O)cc2)ccc1C(=O)NC1CCCCC1 [Example 19, 2-[4-[5-(cyclohexylcarbamoyl)-6-propylsulfanyl-pyridin-2-yl]sulfanylphenoxy]acetic acid], the inhibition at 30 µM is reported as 61%.
Work on O=C(O)C[C@@H]1CCCN(c2ccc(C(=O)NC3CCCCC3)c(N3CCc4ccccc4C3)n2)C1 [compound 144, 2-[(3S)-1-[5-(cyclohexylcarbamoyl)-6-(3,4-dihydro-1H-isoquinolin-2-yl)pyridin-2-yl]-3-piperidyl]acetic acid] yielded an inhibition at 30 µM of 93%.
O=C(O)C[C@H]1CCCN(c2ccc(C(=O)NC3CCCCC3)c(SCCc3ccccc3)n2)C1 [Example 129, 2-[(3R)-1-[5-(cyclohexylcarbamoyl)-6-phenethylsulfanyl-pyridin-2-yl]-3-piperidyl]acetic acid] was tested, and the inhibition at 30 µM was 82%.
O=C(O)C[C@@H]1CCCN(c2ccc(C(=O)NC3CCCCC3)c(NCCc3ccccc3)n2)C1 [compound 152, 2-[(3S)-1-[5-(cyclohexylcarbamoyl)-6-(phenethylamino)pyridin-2-yl]-3-piperidyl]acetic acid] gave an inhibition at 30 µM of 81%.
Compound O=C(NC1CCCCC1)c1ccc(N2CCCC(C3(C(=O)O)CC3)C2)nc1SC1CCCC1 (stereo not drawn) [Example 56, 1-[1-[5-(cyclohexylcarbamoyl)-6-cyclopentylsulfanyl-pyridin-2-yl]-3-piperidyl]cyclopropane-1-carboxylic acid] has an inhibition at 30 µM of 97%.
Compound CCCSc1nc(N2CCCC(C(C)(C)C(=O)O)C2)ccc1C(=O)N[C@H]1C2CC3CC1C[C@](O)(C3)C2 (stereo partly drawn) [Example 92, 2-[1-[5-[((2r,5s)-5-hydroxy-2-adamantyl)carbamoyl]-6-propylsulfanyl-pyridin-2-yl]-3-piperidyl]-2-methyl-propanoic acid] has an inhibition at 30 µM of 89%.
CCCSc1nc(N2CCC[C@@H](CC(=O)O)C2)ccc1C(=O)N[C@H]1C2CC3CC1C[C@](OC(F)F)(C3)C2 [Example 179, 2-[(3S)-1-[5-[[(2r,5s)-5-(Difluoromethoxy)-2-adamantyl]carbamoyl]-6-propylsulfanyl-pyridin-2-yl]-3-piperidyl]acetic acid] showed an inhibition at 30 µM of 87%.
CC(C)CCSc1nc(N2CC[C@@H](C(=O)O)C2)ccc1C(=O)N[C@H]1C2CC3CC1C[C@@](O)(C3)C2 [Example 105] showed an inhibition at 30 µM of 92%.
O=C(O)C[C@H]1CCN(c2ccc(C(=O)N[C@H]3C4CC5CC3C[C@@](O)(C5)C4)c(SC3CCCC3)n2)C1 [Example 95, 2-[(3R)-1-[6-cyclopentylsulfanyl-5-[((2r,5s)-5-hydroxy-2-adamantyl)carbamoyl]pyridin-2-yl]pyrrolidin-3-yl]acetic acid] was tested, and the inhibition at 30 µM was 88%.
With CCCSc1nc(N2CCC(C)(C(=O)O)CC2)ccc1C(=O)NC1CCCCC1 [Example 32, 1-[5-(cyclohexylcarbamoyl)-6-propylsulfanyl-pyridin-2-yl]-4-methyl-piperidine-4-carboxylic acid] the inhibition at 30 µM was 89%.
Compound CCCSc1nc(N2CC[C@@H](CC(=O)O)C2)ccc1C(=O)NC1C2CC3CC(C2)CC1C3 (stereo partly drawn) [Example 62, 2-[(3S)-1-[5-(2-adamantylcarbamoyl)-6-propylsulfanyl-pyridin-2-yl]pyrrolidin-3-yl]acetic acid] has an inhibition at 30 µM of 89%.
O=C(O)C[C@@H]1CCCN(c2ccc(C(=O)N[C@H]3C4CC5CC3C[C@@](O)(C5)C4)c(SC3CCCC3)n2)C1 [Example 94] was tested, and the inhibition at 30 µM was 90%.
O=C(O)C[C@@H]1CCCN(c2ccc(C(=O)NC3CCCCC3)c(N3CCN(S(=O)(=O)c4ccccc4)CC3)n2)C1 [compound 149, 2-[(3S)-1-[6-[4-(benzenesulfonyl)piperazin-1-yl]-5-(cyclohexyl-carbamoyl)pyridin-2-yl]-3-piperidyl]acetic acid] was tested, and the inhibition at 30 µM was 83%.
For CCCSc1nc(N2CCC(C(=O)O)CC2)ccc1C(=O)N[C@H]1C2CC3CC1C[C@@](O)(C3)C2 [Example 84, 1-[5-[[(2r,5s)-5-hydroxy-2-adamantyl]carbamoyl]-6-propylsulfanyl-pyridin-2-yl]piperidine-4-carboxylic acid], the inhibition at 30 µM was 101%.
For CCCSc1nc(N2CC[C@@H](CC(=O)O)C2)ccc1C(=O)NC1C2CC3CC1CC(O)(C3)C2 (stereo partly drawn) [Example 79, 2-[(3S)-1-[5-[((2r,5s)-5-hydroxy-2-adamantyl)carbamoyl]-6-propylsulfanyl-pyridin-2-yl]pyrrolidin-3-yl]acetic acid], the inhibition at 30 µM was 90%.
O=C(N[C@H]1C2CC3CC1C[C@](OC(F)F)(C3)C2)c1ccc(N2CC[C@@H](C(=O)O)C2)nc1SC1CCCC1 [Example 182, (3R)-1-[6-cyclopentylsulfanyl-5-[[(2r,5s)-5-(difluoromethoxy)-2-adamantyl]carbamoyl]pyridin-2-yl]pyrrolidine-3-carboxylic acid] was tested, and the inhibition at 30 µM was 91%.
For CCCSc1nc(N2CCC(C3(C(=O)O)CC3)CC2)ccc1C(=O)NC1CCCCC1 [Example 50, 1-[1-[5-(cyclohexylcarbamoyl)-6-propylsulfanyl-pyridin-2-yl]-4-piperidyl]cyclopropane-1-carboxylic acid], the inhibition at 30 µM was 81%.
CCCSc1nc(N2CCC[C@@H](CC(=O)O)C2)ccc1C(=O)N(C)C1CCCCC1 [compound 169, 2-[(3S)-1-[5-(cyclohexyl-methyl-carbamoyl)-6-propylsulfanyl-pyridin-2-yl]-3-piperidyl]acetic acid] showed an inhibition at 30 µM of 100%.
Work on CCCSc1nc(N2CC[C@H](CC(=O)O)C2)ccc1C(=O)N[C@H]1C2CC3CC1C[C@@](O)(C3)C2 [Example 90, 2-[(3R)-1-[5-[[(2r,5s)-5-hydroxy-2-adamantyl]carbamoyl]-6-propylsulfanyl-pyridin-2-yl]pyrrolidin-3-yl]acetic acid] yielded an inhibition at 30 µM of 88%.
With CCCSc1nc(Sc2ccccc2C(=O)O)ccc1C(=O)NC1CCCCC1 [Example 24, 2-[5-(cyclohexylcarbamoyl)-6-propylsulfanyl-pyridin-2-yl]sulfanylbenzoic acid] the inhibition at 30 µM was 77%.
O=C(O)C[C@@H]1CCCN(c2ccc(C(=O)N3CCC(c4cccnc4)C3)c(SC3CCCC3)n2)C1 (stereo partly drawn) [Example 127, 2-[(3S)-1-[6-cyclopentylsulfanyl-5-(3-pyridin-3-ylpyrrolidine-1-carbonyl)pyridin-2-yl]-3-piperidyl]acetic acid] gave an inhibition at 30 µM of 96%.
Compound CCCSc1nc(N2CCC[C@@H](CC(=O)O)C2)ccc1C(=O)N1CCCC(C(F)(F)F)C1 (stereo partly drawn) [Example 118, 2-[(3S)-1-[6-propylsulfanyl-5-[3-(trifluoromethyl)-piperidine-1-carbonyl]pyridin-2-yl]-3-piperidyl]acetic acid] has an inhibition at 30 µM of 101%.
Compound CCCSc1nc(Oc2ccc(C(=O)O)cc2)ccc1C(=O)NC1CCCCC1 [Example 16, 4-[5-(cyclohexylcarbamoyl)-6-propylsulfanyl-pyridin-2-yl]oxybenzoic acid] has an inhibition at 30 µM of 43%.
Work on CCCSc1nc(N2CCC(C(=O)O)C(C)C2)ccc1C(=O)NC1CCCCC1 (stereo not drawn) [Example 36] yielded an inhibition at 30 µM of 89%.
Work on O=C(O)C[C@H]1CCCN(c2ccc(C(=O)NC3CCCCC3)c(SC3CCCCC3)n2)C1 [Example 58, 2-[(3R)-1-[5-(cyclohexylcarbamoyl)-6-cyclohexylsulfanyl-pyridin-2-yl]-3-piperidyl]acetic acid] yielded an inhibition at 30 µM of 83%.
Work on CCCSc1nc(N2CCOC(C(=O)O)C2)ccc1C(=O)NC1CCCCC1 (stereo not drawn) [Example 51, 4-[5-(cyclohexylcarbamoyl)-6-propylsulfanyl-pyridin-2-yl]morpholine-2-carboxylic acid] yielded an inhibition at 30 µM of 90%.
For CCCSc1nc(Oc2ccc(CCC(=O)O)cc2)ccc1C(=O)NC1CCCCC1 [Example 18, 3-[4-[5-(cyclohexylcarbamoyl)-6-propylsulfanyl-pyridin-2-yl]oxyphenyl]propanoic acid], the inhibition at 30 µM was 81%.
Work on CN(CCc1ccccc1)c1nc(N2CCC[C@@H](CC(=O)O)C2)ccc1C(=O)NC1CCCCC1 [compound 153, 2-[(3S)-1-[5-(cyclohexylcarbamoyl)-6-(methyl-phenethyl-amino)pyridin-2-yl]-3-piperidyl]acetic acid] yielded an inhibition at 30 µM of 92%.
With CCCSc1nc(N2CCC[C@@H](CC(=O)O)C2)ccc1C(=O)N[C@H]1CC[C@H](O)CC1 [Example 125, 2-[(3S)-1-[5-[(4-hydroxycyclohexyl)carbamoyl]-6-propylsulfanyl-pyridin-2-yl]-3-piperidyl]acetic acid] the inhibition at 30 µM was 102%.
In the case of CC(C)CCSc1nc(N2C[C@@H]3[C@H](C2)[C@H]3C(=O)O)ccc1C(=O)N[C@H]1C2CC3CC1C[C@@](O)(C3)C2 [Example 106, (1R,5S)-3-[5-[((2r,5s)-5-hydroxy-2-adamantyl)carbamoyl]-6-(3-methylbutylsulfanyl)pyridin-2-yl]-3-azabicyclo[3.1.0]hexane-6-carboxylic acid], the inhibition at 30 µM is reported as 95%.
